# ChEMBL document CHEMBL1201862, “PubChem BioAssay data set” (2004)
#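 Cells were grown in 96-well plates and exposed to each compound for 48 hours at five concentrations; endpoints were interpolated linearly between bracketing concentrations, or set to the highest concentration if not reached. Abbreviation: GI50, concentration required for 50% inhibition of growth.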 Active and inactive are the calls of the source. Cut-off read from the data, not from the text of the source: active = GI50 up to about 1.1 µM and inactive = higher.
# How the values were obtained:
# Experiment in all cases: growth of human tumour cells (NCI), 48 h
# BT-549 = test system: BT-549
# SF-268 = test system: SF-268
# HCT-116 = test system: HCT-116
# SF-295 = test system: SF-295
# HOP-62 = test system: HOP-62
# 786-0 = test system: 786-0
# U-251 = test system: U-251
# NCI-H226 = test system: NCI-H226
# K562 = test system: K562
# SNB-19 = test system: SNB-19
# SN12C = test system: SN12C
# MCF7 = test system: MCF7
# HOP-92 = test system: HOP-92
# EKVX = test system: EKVX
# Malme-3M = test system: Malme-3M
# PC-3 = test system: PC-3
# OVCAR-3 = test system: OVCAR-3
# UO-31 = test system: UO-31
# SK-MEL-28 = test system: SK-MEL-28
# SK-MEL-2 = test system: SK-MEL-2
# M14 = test system: M14
# DU-145 = test system: DU-145
# RPMI-8226 = test system: RPMI-8226
# MDA-MB-435 = test system: MDA-MB-435
# A498 = test system: A498
# CAKI-1 = test system: CAKI-1
# MDA-N = test system: MDA-N
# OVCAR-5 = test system: OVCAR-5
# SK-MEL-5 = test system: SK-MEL-5
# SNB-75 = test system: SNB-75
# OVCAR-4 = test system: OVCAR-4
# KM12 = test system: KM12
# NCI-H23 = test system: NCI-H23
# NCI-H460 = test system: NCI-H460
# MDA-MB-231 = test system: MDA-MB-231
# NCI-H522 = test system: NCI-H522
# T47D = test system: T47D
# HCT-15 = test system: HCT-15
# UACC-257 = test system: UACC-257
# A549 = test system: A549
# ACHN = test system: ACHN
# COLO 205 = test system: COLO 205
# UACC-62 = test system: UACC-62
# TK-10 = test system: TK-10
# HCC 2998 = test system: HCC 2998
# NCI/ADR-RES = test system: NCI/ADR-RES
# SK-OV-3 = test system: SK-OV-3
# IGROV-1 = test system: IGROV-1
# SF-539 = test system: SF-539
# OVCAR-8 = test system: OVCAR-8
# LOX IMVI = test system: LOX IMVI
# HT-29 = test system: HT-29
# HL-60 = test system: HL-60
# MOLT-4 = test system: MOLT-4
# SW-620 = test system: SW-620
compound,measurement,setting,value
N#CCC(=O)c1cc(OCc2cc(OCc3ccc(Br)cc3)cc(OCc3ccc(Br)cc3)c2)cc(OCc2cc(OCc3ccc(Br)cc3)cc(OCc3ccc(Br)cc3)c2)c1,GI50,BT-549,> 100 µM (inactive)
same,GI50,SF-268,> 100 µM (inactive)
same,GI50,HCT-116,> 100 µM (inactive)
same,GI50,SF-295,> 100 µM (inactive)
same,GI50,HOP-62,> 100 µM (inactive)
same,GI50,786-0,> 100 µM (inactive)
same,GI50,U-251,> 100 µM (inactive)
same,GI50,NCI-H226,> 100 µM (inactive)
same,GI50,K562,0.264 µM (active)
same,GI50,SNB-19,> 100 µM (inactive)
same,GI50,SN12C,> 100 µM (inactive)
same,GI50,MCF7,> 100 µM (inactive)
same,GI50,HOP-92,> 100 µM (inactive)
same,GI50,EKVX,> 100 µM (inactive)
same,GI50,Malme-3M,> 100 µM (inactive)
same,GI50,PC-3,> 100 µM (inactive)
same,GI50,OVCAR-3,> 100 µM (inactive)
same,GI50,UO-31,> 100 µM (inactive)
same,GI50,SK-MEL-28,> 100 µM (inactive)
same,GI50,SK-MEL-2,> 100 µM (inactive)
same,GI50,M14,> 100 µM (inactive)
same,GI50,DU-145,> 100 µM (inactive)
same,GI50,RPMI-8226,> 100 µM (inactive)
same,GI50,MDA-MB-435,> 100 µM (inactive)
same,GI50,A498,> 100 µM (inactive)
same,GI50,CAKI-1,> 100 µM (inactive)
same,GI50,MDA-N,> 100 µM (inactive)
same,GI50,OVCAR-5,> 100 µM (inactive)
same,GI50,SK-MEL-5,> 100 µM (inactive)
same,GI50,SNB-75,> 100 µM (inactive)
same,GI50,OVCAR-4,> 100 µM (inactive)
same,GI50,KM12,> 100 µM (inactive)
same,GI50,NCI-H23,> 100 µM (inactive)
same,GI50,NCI-H460,> 100 µM (inactive)
same,GI50,MDA-MB-231,> 100 µM (inactive)
same,GI50,NCI-H522,> 100 µM (inactive)
same,GI50,T47D,> 100 µM (inactive)
same,GI50,HCT-15,> 100 µM
same,GI50,UACC-257,> 100 µM (inactive)
same,GI50,A549,> 100 µM (inactive)
same,GI50,ACHN,> 100 µM (inactive)
same,GI50,COLO 205,> 100 µM (inactive)
same,GI50,UACC-62,> 100 µM (inactive)
same,GI50,TK-10,> 100 µM (inactive)
same,GI50,HCC 2998,> 100 µM (inactive)
same,GI50,NCI/ADR-RES,> 100 µM (inactive)
same,GI50,SK-OV-3,> 100 µM (inactive)
O=C1Oc2ccccc2C(=O)/C1=C/N1C(=O)N/C(=C\c2cccc(O)c2)C1=O,GI50,BT-549,21.8 µM (inactive)
same,GI50,HCT-116,76 µM (inactive)
same,GI50,IGROV-1,31.3 µM (inactive)
same,GI50,SF-295,67.3 µM (inactive)
same,GI50,HOP-62,69.7 µM (inactive)
same,GI50,786-0,74.8 µM (inactive)
same,GI50,U-251,> 100 µM (inactive)
same,GI50,NCI-H226,> 100 µM (inactive)
same,GI50,SNB-19,45.3 µM (inactive)
same,GI50,SN12C,69.5 µM (inactive)
same,GI50,MCF7,> 100 µM (inactive)
same,GI50,HOP-92,> 100 µM (inactive)
same,GI50,EKVX,> 100 µM (inactive)
same,GI50,SF-539,99.5 µM (inactive)
same,GI50,PC-3,54.3 µM (inactive)
same,GI50,OVCAR-8,33.2 µM (inactive)
same,GI50,LOX IMVI,> 100 µM (inactive)
same,GI50,OVCAR-3,> 100 µM (inactive)
same,GI50,UO-31,29.5 µM (inactive)
same,GI50,HT-29,> 100 µM (inactive)
same,GI50,SK-MEL-28,> 100 µM (inactive)
same,GI50,SK-MEL-2,46.2 µM (inactive)
same,GI50,M14,83.8 µM (inactive)
same,GI50,DU-145,72.9 µM (inactive)
same,GI50,HL-60,6.87 µM (inactive)
same,GI50,MDA-MB-435,54.2 µM (inactive)
same,GI50,CAKI-1,41 µM (inactive)
same,GI50,MDA-N,63.8 µM (inactive)
same,GI50,MOLT-4,86.5 µM (inactive)
same,GI50,OVCAR-5,> 100 µM (inactive)
same,GI50,SK-MEL-5,70.8 µM (inactive)
same,GI50,SNB-75,8.36 µM (inactive)
same,GI50,OVCAR-4,85.9 µM (inactive)
same,GI50,SW-620,83.4 µM (inactive)
same,GI50,KM12,62.5 µM (inactive)
same,GI50,NCI-H23,84.9 µM (inactive)
same,GI50,NCI-H460,59 µM (inactive)
same,GI50,MDA-MB-231,62.4 µM (inactive)
same,GI50,T47D,54.2 µM (inactive)
same,GI50,HCT-15,61.9 µM
same,GI50,UACC-257,> 100 µM (inactive)
same,GI50,A549,> 100 µM (inactive)
same,GI50,ACHN,20.7 µM (inactive)
same,GI50,COLO 205,> 100 µM (inactive)
same,GI50,TK-10,46.1 µM (inactive)
same,GI50,HCC 2998,55.7 µM (inactive)
same,GI50,NCI/ADR-RES,> 100 µM (inactive)
same,GI50,SK-OV-3,> 100 µM (inactive)
